Legend:
Human GPR40 [1] = biological target: T1, Human GPR40 (Homo sapiens, UniProt O14842); assay: FLIPR assay, agonist-induced calcium mobilization; assay type: cell-based; design: expressed in transfected cells; settings: GPR40/CHO NFAT BLA cells
Outline: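 CHO NFAT-BLA cells stably expressing human GPR40 were loaded 100 min at room temperature with buffer (HMS, 0.1% BSA, 20 mM HEPES, 2.5 mM probenecid, pH 7.4) containing 8 μM fluo-4 AM. The agonist-induced calcium rise after compound addition was read as FLIPR fluorescence.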

Human GPR40 [2] = biological target: T1, Human GPR40; assay: Inositol Phosphate Turnover (IP1) Assay; assay type: cell-based; design: expressed in transfected cells; host or cells: HEK cells (stably expressing the aequorin reporter); settings: HEK cells stably expressing human GPR40, CisBio IP-One kit
Outline: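 HEK cells stably expressing human GPR40, plated 15,000 per well and incubated 16 h, then exposed to compound for 60 min at 37 degrees in stimulation buffer. IP1 measured by HTRF (IP-One) as 665/620 nm ratio, converted to IP1 concentration via a standard curve.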

T1 sequence (O14842 whole entry): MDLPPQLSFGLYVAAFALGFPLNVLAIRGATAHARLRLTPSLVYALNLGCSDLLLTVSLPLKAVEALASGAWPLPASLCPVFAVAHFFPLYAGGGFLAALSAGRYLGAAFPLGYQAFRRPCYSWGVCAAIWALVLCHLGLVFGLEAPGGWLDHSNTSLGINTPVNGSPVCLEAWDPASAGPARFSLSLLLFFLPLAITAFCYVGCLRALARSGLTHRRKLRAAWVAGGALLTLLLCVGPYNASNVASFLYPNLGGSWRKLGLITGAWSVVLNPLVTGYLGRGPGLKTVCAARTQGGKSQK

| SMILES | EC50 (Human GPR40 [1]) [nM] | EC50 (Human GPR40 [2]) [nM] |
| --- | --- | --- |
| O=C(O)[C@H]1[C@@H]2Cc3cc(OCc4ccc5c(c4)C(c4ccccc4C(F)(F)F)CCO5)ncc3[C@@H]21 (stereo partly drawn) [Example 48, (5aR,6S,6aS)-3-((4-(2-(trifluoromethyl)phenyl)chroman-6-yl)methoxy)-5,5a,6,6a-tetrahydrocyclopropa[4,5]cyclopenta[1,2-c]pyridine-6-carboxylic acid] | 77.8 | 36.2 |
| O=C(O)[C@H]1[C@@H]2Cc3cc(OCc4ccc5c(c4)C(c4ccccc4C(F)(F)F)OCC5)ncc3[C@@H]21 (stereo partly drawn) [Example 50, (5aR,6S,6aS)-3-((1-(2-(trifluoromethyl)phenyl)isochroman-7-yl)methoxy)-5,5a,6,6a-tetrahydrocyclopropa[4,5]cyclopenta[1,2-c]pyridine-6-carboxylic acid] | 43.2 | 15 |
| CC1(C)CCN(c2ccccc2C(F)(F)F)c2cc(COc3cc4c(cn3)[C@H]3[C@@H](C4)[C@@H]3C(=O)O)c(F)cc21 [Example 53, (5aR,6S,6aS)-3-((6-fluoro-4,4-dimethyl-1-(2-(trifluoromethyl)phenyl)-1,2,3,4-tetrahydroquinolin-7-yl)methoxy)-5,5a,6,6a-tetrahydrocyclopropa[4,5]cyclopenta[1,2-c]pyridine-6-carboxylic acid] | 8.38 | 39.2 |
| CC1(C)CC(=O)N(c2ccccc2C(F)(F)F)c2cc(COc3cc4c(cn3)[C@H]3[C@@H](C4)[C@@H]3C(=O)O)c(F)cc21 [Example 54, (5aR,6S,6aS)-3-((6-fluoro-4,4-dimethyl-2-oxo-1-(2-(trifluoromethyl)phenyl)-1,2,3,4-tetrahydroquinolin-7-yl)methoxy)-5,5a,6,6a-tetrahydrocyclopropa[4,5] cyclopenta[1,2-c]pyridine-6-carboxylic acid] | 44.9 | 562 |
| CC1(C)CCC(c2ccccc2C(F)(F)F)c2cc(COc3cc4c(cn3)[C@H]3[C@@H](C4)[C@@H]3C(=O)O)c(F)cc21 (stereo partly drawn) [Example 55, (5aR,6S,6aS)-3-((3-fluoro-5,5-dimethyl-8-(2-(trifluoromethyl)phenyl)-5,6,7,8-tetrahydronaphthalen-2-yl)methoxy)-5,5a,6,6a-tetrahydrocyclopropa[4,5]cyclopenta[1,2-c]pyridine-6-carboxylic acid] | 63.7 | 70.2 |
| O=C(O)[C@H]1[C@@H]2Cc3cc(OCc4ccc5c(c4)N(c4ccccc4)CCO5)ncc3[C@@H]21 [Example 61, (5aR,6S,6aS)-3-((4-phenyl-3,4-dihydro-2H-benzo[b][1,4]oxazin-6-yl)methoxy)-5,5a,6,6a-tetrahydrocyclopropa[4,5]cyclopenta[1,2-c]pyridine-6-carboxylic acid] | 40.5 | 653 |
| O=C(O)[C@H]1[C@@H]2Cc3cc(OCc4ccc5c(c4)N(c4ccccc4)CCCC5)ncc3[C@@H]21 [Example 62, (5aR,6S,6aS)-3-((1-phenyl-2,3,4,5-tetrahydro-1H-benzo[b]azepin-8-yl)methoxy)-5,5a,6,6a-tetrahydrocyclopropa[4,5]cyclopenta[1,2-c]pyridine-6-carboxylic acid] | 14.6 | 42.9 |
| O=C(O)[C@H]1[C@@H]2Cc3cc(OCc4ccc5c(c4)N(c4ccccc4)CCC5)ccc3[C@@H]21 [Example 66, (1S,1aS,6aR)-4-((1-phenyl-1,2,3,4-tetrahydroquinolin-7-yl)methoxy)-1,1a,6,6a-tetrahydrocyclopropa[a]indene-1-carboxylic acid] | 9.77 | 72.6 |
| O=C(O)[C@H]1[C@@H]2Cc3cc(OCc4ccc5c(c4)N(c4ccccn4)CCC5)ccc3[C@@H]21 [Example 67, (1S,1aS,6aR)-4-((1-(pyridin-2-yl)-1,2,3,4-tetrahydroquinolin-7-yl)methoxy)-1,1a,6,6a-tetrahydrocyclopropa[a] indene-1-carboxylic acid] | 28.9 | 169 |
| Cc1ccccc1N1CCCc2ccc(COc3ccc4c(c3)C[C@H]3[C@H](C(=O)O)[C@@H]43)cc21 [Example 68, (1S,1aS,6aR)-4-((1-(o-tolyl)-1,2,3,4-tetrahydroquinolin-7-yl)methoxy)-1,1a,6,6a-tetrahydrocyclopropa[a] indene-1-carboxylic acid] | 24.7 | 64.9 |
| Cn1cnc2c([C@H]3CC(C)(C)c4ccc(COc5cc6c(cn5)[C@H]5[C@@H](C6)[C@@H]5C(=O)O)cc43)cccc21 [Example 71] | 13.3 | 205 |
| CN1CC(C)(C)c2cc(F)c(COc3cc4c(cn3)[C@H]3[C@@H](C4)[C@@H]3C(=O)O)cc2[C@H]1c1ccccc1C(F)(F)F [Example 73, (5aR,6S,6aS)-3-(((S)-6-fluoro-2,4,4-trimethyl-1-(2-(trifluoromethyl)phenyl)-1,2,3,4-tetrahydroisoquinolin-7-yl)methoxy)-5,5a,6,6a-tetrahydrocyclopropa[4,5]cyclopenta[1,2-c]pyridine-6-carboxylic acid] | 18.6 | 21.1 |
| CC1(C)CNC(c2ccccc2C(F)(F)F)c2c1ccc(COc1cc3c(cn1)[C@H]1[C@@H](C3)[C@@H]1C(=O)O)c2F (stereo partly drawn) [Example 74, (5aR,6S,6aS)-3-((8-fluoro-4,4-dimethyl-1-(2-(trifluoromethyl)phenyl)-1,2,3,4-tetrahydroisoquinolin-7-yl)methoxy)-5,5a,6,6a-tetrahydrocyclopropa[4,5]cyclopenta[1,2-c]pyridine-6-carboxylic acid] | 6.75 | 4.99 |
